Assay [1] has as its system accumulation of dulcitol in the lenses. In words: galactosemic rats, dulcitol accumulation in the lens. Format: in vivo, rat (Sprague-Dawley). Particulars: 4 days, vs untreated galactosemic rats. An excerpt: The aldose reductase inhibiting property of the compounds of this invention and the utilization of the compounds in preventing, diminishing and alleviating diabetic complications are demonstrable in experiments using galactosemic rats, see Dvornik et al., cited above. Such experiments are exemplified hereinbelow after the listing of the following general comments pertaining to these experiments:
(a) Four or more groups of six male rats, 50-70 g, Sprague-Dawley strain, were used. The first group, the control group, was fed a mixture of laboratory chow (rodent laboratory chow, Purina) and glucose at 20% (w/w %) concentration. The untreated galactosemic group was fed a similar diet in which galactose is substituted for glucose. The third group was fed a diet prepared by mixing a given amount of the test compound with the galactose containing diet. The concentration of galactose in the diet of the treated groups was the same as that for the untreated galactosemic group.
(b) After four days, the animals were killed by decapitation. The eyeballs were removed and punctured with a razor blade; the freed lenses were rolled gently on filter paper and weighed. The sciatic nerves were dissected as completely as possible and weighed. Both tissues were frozen and can be kept up to two weeks before being analyzed for dulcitol.
(c) The polyol determination was performed by a modification of the procedure of M. Kraml and L. Cosyns, Clin. Biochem., 2, 373 (1969). Only two minor reagent changes were made: (a) The rinsing mixture was an aqueous 5% (w/v) trichloroacetic acid solution and (b) the stock solution was prepared by dissolving 25 mg of dulcitol in 100 ml of an aqueous trichloroacetic acid solution. [N.B.: For each experiment the average value found in the tissue from rats fed the glucose diet was subtracted from the individual values found in the corresponding rat tissue to obtain the amount of polyol accumulated].
The figures under L and N represent the percentage decrease of dulcitol accumulation in the tissues of the lens and sciatic nerve, respectively, for treated rats as compared to untreated rats.

The target of another assay is T1, aldose reductase (Bos taurus, UniProt P16116).
T1 construct: the preparation of the enzyme from bovine lens; from tissue; host or cells: bovine lens
Put plainly: in vitro aldose reductase inhibition (modified Hayman and Kinoshita procedure). The format is biochemical, bovine. To be noted: for inhibition at 10 µM: 10^-5 molar, read-out: % Inhibition at Different Molar Concentration (in vitro), 10^-5; for inhibition at 1 µM: 10^-6 molar, read-out: % Inhibition at Different Molar Concentration (in vitro), 10^-6; for inhibition at 0.1 µM: 10^-7 molar, read-out: % Inhibition at Different Molar Concentration (in vitro), 10^-7. An excerpt: In the present case the procedure of Hayman and Kinoshita is modified in that the final chromatography step is omitted in the preparation of the enzyme from bovine lens.

The values that follow come from patent US4568693A, “N-Naphthoylglycine derivatives” (Ayerst, McKenna & Harrison, Inc., priority 1981, dated 1986).

Consider `COc1ccc2c(C(=S)N(C)CC(=O)O)cccc2c1C(F)(F)F` [Example 52, N-[[5-(trifluoromethyl)-6-methoxy-1-naphthalenyl]thioxomethyl]-N-methylglycine], for which, in assay [1] (26 mg/kg/day in diet), the “percentage decrease of dulcitol accumulation, lens (L)” value was 15%.

Take `COc1cccc2c(C(=S)N(C)CC(=O)O)cccc12` [Example 35, N-[(5-methoxy-1-naphthalenyl)thioxomethyl]-N-methylglycine]: on aldose reductase, the inhibition at 10 µM amounted to 83%, the inhibition at 1 µM was 64% and the inhibition at 0.1 µM came to 17%.

On to `CN(CC(=O)O)C(=S)c1cccc2cccc(Br)c12` [Example 34, N-[(8-bromo-1-naphthalenyl)thioxomethyl]-N-methylglycine], for which, on aldose reductase, the inhibition at 10 µM was found to be 88%, the inhibition at 1 µM is 75% and the inhibition at 0.1 µM was 24%.

On to `CC(C)c1cccc2c(C(=S)N(C)CC(=O)O)cccc12` [Example 51, N-[[5-(1-methylethyl)-1-naphthalenyl]thioxomethyl]-N-methylglycine], for which, at aldose reductase, the inhibition at 10 µM was 91%, the inhibition at 1 µM was determined as 72% and the inhibition at 0.1 µM is 21%.

With `C=CCN(CC(=O)O)C(=S)c1cccc2c(Br)cccc12` [Example 56, N-[(5-bromo-1-naphthalenyl)thioxomethyl]-N-(2-propylene)glycine], on aldose reductase, the inhibition at 10 µM came to 92%, the inhibition at 1 µM was determined as 77% and the inhibition at 0.1 µM was 27%.

For `CCCCCOc1ccc2c(C(=S)N(C)CC(=O)O)cccc2c1Br` [Example 37, N-[(5-bromo-6-pentyloxy-1-naphthalenyl)thioxomethyl]-N-methylglycine], on aldose reductase, the inhibition at 10 µM was 93%, the inhibition at 1 µM is 91% and the inhibition at 0.1 µM came out at 55%.

As for `COc1ccc2c(C(=S)N(C)CC(=O)O)cccc2c1C#N` [Example 48, N-[(5-cyano-6-methoxy-1-naphthalenyl)thioxomethyl]-N-methylglycine], on aldose reductase, the inhibition at 10 µM was found to be 98%, the inhibition at 1 µM came out at 93% and the inhibition at 0.1 µM is 74%.

On to `COc1ccc2c(C(=S)N(C)CC(=O)O)ccc(OC)c2c1C(F)(F)F` [CH3, H, 4-CH3 O, 5-CF3,6-CH3 O, N-[[4,6-dimethoxy-5-(trifluoromethyl)-1-naphthalenyl]thioxomethyl]-N-methylglycine], for which, in assay [1] (144 mg/kg/day in diet), the “percentage decrease of dulcitol accumulation, lens (L)” value is on record as 33%.

Turning to `O=C(O)CN(Cc1ccccc1)C(=S)c1cccc2c(Br)cccc12` [Example 59, N-[(5-bromo-1-naphthalenyl)thioxomethyl]-N-(phenylmethyl)glycine], at aldose reductase, the inhibition at 10 µM was 86%, the inhibition at 1 µM is 69% and the inhibition at 0.1 µM came to 20%.

As to `COC(=O)CN(C)C(=S)c1cccc2c(Br)cccc12` [Example 3, N-[(5-Bromo-1-naphthalenyl)thioxomethyl]-N-methylglycine Methyl Ester], the inhibition at 10 µM on aldose reductase was 8%.

With `CCN(CC(=O)O)C(=S)c1cccc2c(Br)cccc12` [Example 57, N-[(5-bromo-1-naphthalenyl)thioxomethyl]-N-ethylglycine], on aldose reductase, the inhibition at 10 µM was determined as 85%, the inhibition at 1 µM amounted to 72% and the inhibition at 0.1 µM was 24%.

With `CN(CC(=O)O)C(=S)c1ccc(Br)c2ccccc12` [Example 33, N-[(4-bromo-1-naphthalenyl)thioxomethyl]-N-methylglycine], on aldose reductase, the inhibition at 10 µM is 91%, the inhibition at 1 µM amounted to 77% and the inhibition at 0.1 µM turned out to be 32%.

For `CCCN(CC(=O)O)C(=S)c1cccc2c(Br)cccc12` [Example 55, N-[(5-bromo-1-naphthalenyl)thioxomethyl]-N-propylglycine], on aldose reductase, the inhibition at 10 µM was 91%, the inhibition at 1 µM came out at 70% and the inhibition at 0.1 µM came out at 19%.

Turning to `Cc1ccc2c(C(=S)N(C)CC(=O)O)cccc2c1Br` [Example 42, N-[(5-bromo-6-methyl-1-naphthalenyl)thioxomethyl]-N-methylglycine], on aldose reductase, the inhibition at 10 µM was 92%, the inhibition at 1 µM turned out to be 88% and the inhibition at 0.1 µM worked out at 55%.

For the molecule `COCCCOc1ccc2c(C(=S)N(C)CC(=O)O)cccc2c1Br` [Example 49, N-[[5-bromo-6-(3-methoxy-propoxy)-1-naphthalenyl]thioxomethyl]-N-methylglycine], on aldose reductase, the inhibition at 10 µM came to 92%, the inhibition at 1 µM came to 87% and the inhibition at 0.1 µM was 38%.

`COc1c(Cl)cc(C(=S)NCC(=O)O)c2ccccc12` [Example 32 (H, H, 3-Cl, 4-CH3 O), N-[(3-chloro-4-methoxy-1-naphthalenyl)thioxomethyl]glycine]: at aldose reductase, the inhibition at 10 µM came to 61% and the inhibition at 1 µM was found to be 16%.

With `CN(CC(=O)O)C(=S)c1cccc2c(Br)c(OCc3cccc(C(F)(F)F)c3)ccc12` [Example 53, N-[[5-bromo-6-[3-(trifluoromethyl)phenylmethoxy]-1-naphthalenyl]thioxomethyl]-N-methylglycine], at aldose reductase, the inhibition at 10 µM was found to be 86%, the inhibition at 1 µM came to 37% and the inhibition at 0.1 µM was 11%.

`CN(CC(=O)O)C(=S)c1cccc2ccccc12` [Example 43, N--((1naphthalenyl)thioxomethyl)-N--methylglycine]: at aldose reductase, the inhibition at 10 µM was 85%, the inhibition at 1 µM came to 51% and the inhibition at 0.1 µM came to 13%.

As to `Cc1cccc2c(C(=S)N(C)CC(=O)O)cccc12` [Example 36, N-[(5-methyl-1-naphthalenyl)thioxomethyl]-N-methylglycine], on aldose reductase, the inhibition at 10 µM came out at 89%, the inhibition at 1 µM came to 74% and the inhibition at 0.1 µM was found to be 26%.

Turning to `CN(CC(=O)O)C(=S)c1cccc2c([N+](=O)[O-])cccc12` [Example 39, N-[(5-nitro-1-naphthalenyl)thioxomethyl]-N-methylglycine], at aldose reductase, the inhibition at 10 µM is 91%, the inhibition at 1 µM came out at 83% and the inhibition at 0.1 µM turned out to be 43%.

Take `CN(CC(=O)O)C(=O)c1cccc2c(Br)cccc12` [N-[(5-Bromo-1-naphthalenyl)carbonyl]-N-methylglycine]: at aldose reductase, the inhibition at 10 µM is 64% and the inhibition at 1 µM stood at 21%.

On to `CCCCN(CC(=O)O)C(=S)c1cccc2c(Br)cccc12` [Example 58, N-[(5-bromo-1-naphthalenyl)thioxomethyl]-N-butylglycine], for which, at aldose reductase, the inhibition at 10 µM came to 86%, the inhibition at 1 µM was 65% and the inhibition at 0.1 µM came out at 19%.

In the case of `C=C(C)c1cccc2c(C(=S)N(C)CC(=O)O)cccc12` [Example 50, N-[[5-(1-methylethenyl)-1-naphthalenyl]thioxomethyl]-N-methylglycine], at aldose reductase, the inhibition at 10 µM worked out at 92%, the inhibition at 1 µM was 74% and the inhibition at 0.1 µM is 19%.

`COc1ccc2c(C(=S)N(C)CC(=O)O)cccc2c1I` [Example 47, N-[(5-iodo-6-methoxy-1-naphthalenyl)thioxomethyl]-N-methylglycine]: on aldose reductase, the inhibition at 10 µM was 98%, the inhibition at 1 µM amounted to 95% and the inhibition at 0.1 µM is 72%.

Take `COc1ccc2c(C(=O)N(C)CC(=O)O)cccc2c1C(F)(F)F` [N-[[5-(trifluoromethyl)-6-methoxy-1-naphthalenyl]carbonyl]-N-methylglycine]: at aldose reductase, the inhibition at 10 µM came out at 94%, the inhibition at 1 µM stood at 93% and the inhibition at 0.1 µM came to 60%.

With `CN(CC(=O)O)C(=S)c1cccc2c(C#N)cccc12` [Example 38, N-[(5-cyano-1-naphthalenyl)thioxomethyl]-N-methylglycine], on aldose reductase, the inhibition at 10 µM was found to be 89%, the inhibition at 1 µM is 79% and the inhibition at 0.1 µM is 32%.

As for `CN(CC(=O)O)C(=S)c1cccc2c(Br)c(OCc3ccc(Cl)cc3)ccc12` [Example 53a, N-[[5-bromo-6-(4-chlorophenylmethoxy)-1-naphthalenyl]thioxomethyl]-N-methylglycine], on aldose reductase, the inhibition at 10 µM was found to be 88%, the inhibition at 1 µM turned out to be 44% and the inhibition at 0.1 µM is 4%.

`O=C(O)CNC(=S)c1cccc2c(Br)cccc12` [Example 54, N-[(5-bromo-1-naphthalenyl)thioxomethyl]glycine]: on aldose reductase, the inhibition at 10 µM is 54% and the inhibition at 1 µM was found to be 14%.

Turning to `CN(CC(=O)O)C(=S)c1ccc(Cl)c2ccccc12` [Example 44, N-[(4-chloro-1-naphthalenyl)thioxomethyl]-N-methylglycine], at aldose reductase, the inhibition at 10 µM worked out at 88%, the inhibition at 1 µM was found to be 73% and the inhibition at 0.1 µM turned out to be 25%.
